In patent US8658638B2, “Mineralocorticoid receptor antagonist and methods of use” (priority 2009, dated 2014):

Molecular target: T1, human GR (glucocorticoid receptor) (Homo sapiens, UniProt P04150)
T1 construct: expressed in transfected cells; host or cells: HEK293 (293-GR lysate)
T1 sequence (P04150 1-777): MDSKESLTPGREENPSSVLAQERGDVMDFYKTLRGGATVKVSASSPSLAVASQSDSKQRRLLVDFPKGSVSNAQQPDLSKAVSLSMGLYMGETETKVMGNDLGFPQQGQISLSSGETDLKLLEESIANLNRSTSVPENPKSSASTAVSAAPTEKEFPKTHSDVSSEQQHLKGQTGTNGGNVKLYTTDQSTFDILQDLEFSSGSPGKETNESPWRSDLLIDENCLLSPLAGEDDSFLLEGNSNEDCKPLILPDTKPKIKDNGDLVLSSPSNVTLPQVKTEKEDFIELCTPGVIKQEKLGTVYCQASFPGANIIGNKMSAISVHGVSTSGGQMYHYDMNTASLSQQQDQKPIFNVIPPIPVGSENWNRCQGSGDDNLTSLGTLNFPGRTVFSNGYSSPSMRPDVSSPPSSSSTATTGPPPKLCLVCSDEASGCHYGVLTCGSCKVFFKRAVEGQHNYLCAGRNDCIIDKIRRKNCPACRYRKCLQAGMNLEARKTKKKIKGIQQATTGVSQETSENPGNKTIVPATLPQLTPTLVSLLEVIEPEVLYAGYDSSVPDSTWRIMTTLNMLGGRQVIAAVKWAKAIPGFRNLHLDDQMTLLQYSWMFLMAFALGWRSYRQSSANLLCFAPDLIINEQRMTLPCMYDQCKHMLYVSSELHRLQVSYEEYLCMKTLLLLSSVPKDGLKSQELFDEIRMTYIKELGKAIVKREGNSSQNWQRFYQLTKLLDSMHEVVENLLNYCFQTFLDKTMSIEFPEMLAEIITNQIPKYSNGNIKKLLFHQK
Experiment: Steroid nuclear hormone receptor binding assay, GR
Details: [3H]-dexamethasone, HEK293 lysate overexpressing human GR
Method: Cell lysates from human embryonic kidney HEK293 cells overexpressing human MR (mineralocorticoid receptor), GR (glucocorticoid receptor), AR (androgen receptor), or PR (progesterone receptor) are used for receptor-ligand competition binding assays to determine Ki values.
Briefly, steroid receptor competition binding assays are run in a buffer containing 20 mM HEPES buffer (pH=7.6), 0.2 mM EDTA, 75 mM NaCl, 1.5 mM MgCl2, 20% glycerol, 20 mM sodium molybdate, 0.2 mM DTT (dithiothreitol), 20 μg/mL aprotinin and 20 μg/mL leupeptin (assay buffer). Typically, steroid receptor binding assays include radio-labeled ligands, such as 0.25 nM [^3H]-aldosterone for MR binding, 0.7 nM [^3H]-dexamethasone for GR binding, 0.36 nM [^3H]-methyltrienolone for AR binding, and 0.29 nM [^3H]-methyltrienolone for PR binding, and either 20 μg 293-MR lysate, 20 μg 293-GR lysate, 22 μg 293-AR lysate, or 40 μg 293-PR lysate per well. Assays are typically run in 96-well format. Competing test compounds are added at various concentrations ranging from about 0.01 nM to 10 μM. Non-specific binding is determined in the presence of 500 nM aldosterone for MR binding, 500 nM dexamethasone for GR binding, or 500 nM methyltrienolone for AR and PR binding. […] After an incubation of 2 hours, plates are read in a Wallac Microbeta counter. […]

O=c1[nH]c2cc(/C=C3\c4ccccc4COc4cc(F)ccc43)ccc2n1[C@@H]1C[C@@H]2COCCN2C1 [Compound (I), 5-((E)-(3-fluorodibenzo[b,e]oxepin-11(6H)-ylidene)methyl)-1-((7R,8aR)-hexahydro-1H-pyrrolo[2,1-c][1,4]oxazin-7-yl)-1H-benzo[d]imidazol-2(3H)-one]
Ki: ~669 nM
